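Each compound was tested at five concentrations against cells in 96-well plates for 48 hours. The concentration for 50% growth inhibition is given as GI50. TGI is the concentration that stops growth completely.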

Here are results for 9 molecules from PubChem BioAssay (NCI).

What all share (assay): growth of human tumour cells (NCI), 48 h
In test [1] the test system is A498 renal.
Test [2] relates to A549 NSCLC.
In test [3] the test system is COLO 205 colon.
Test [4] has as its system IGROV1 ovarian.
In test [5] the test system is OVCAR-3 ovarian.
In test [6] the test system is OVCAR-4 ovarian.
Test [7] concerns SF-295 CNS.
Test [8] deals with SNB-75 CNS.

Regarding `CC(C)[C@@]12C[C@@H](OC(=O)COC(=O)c3ccccc3)[C@@](C)(O1)[C@@H]1CC[C@@H](C)[C@H]1[C@@H]2OC(=O)/C=C/c1ccccc1`, the GI50 is 0.153 µM in test [1]; > 100 µM in test [2]; > 100 µM in test [3]; > 100 µM in test [4]; > 100 µM in test [5]; > 63.1 µM in test [6]. The GI50 in test [7] and in test [8] was > 100 µM in each case. Besides, the TGI is 0.529 µM in test [1]; > 100 µM in test [2]; > 100 µM in test [3]; > 100 µM in test [4]; > 100 µM in test [5]; > 100 µM in test [6]. For the same molecule, the TGI in test [7] and in test [8] was > 100 µM each time.

In the case of `c1cc[n+](Cc2c3ccccc3cc3c2ccc2ccccc23)cc1`, the GI50 in test [1] was 14.4 µM; in test [2], 7.31 µM; in test [3], 1.88 µM; in test [4] it was 1.67 µM; in test [5], 2.6 µM; in test [6], 3.57 µM. Further, the GI50 was 3.42 µM in test [7] and 1.35 µM in test [8]. In addition, the TGI in test [1] came out at 40.9 µM; in test [2] it was 27.7 µM; in test [3] it was 5.24 µM; in test [4] it was 5.93 µM; in test [5], 11.4 µM; in test [6] it was 14.3 µM. The TGI was 23.2 µM in test [7] and 5.36 µM in test [8].

Regarding `Cn1c2c(c3ccccc31)CCN1C[C@@H]3CCCC[C@H]3C[C@@H]21`, the GI50 in test [1] was 2.08 µM; in test [2], 3.1 µM; in test [3], 2.04 µM; in test [4] it was 3.45 µM; in test [5], 1.95 µM; in test [6] it was 4.36 µM. The GI50 in test [7] is 2.25 µM; in test [8] it was 4.32 µM. Further, the TGI in test [1] was 7.07 µM; in test [2], > 100 µM; in test [3] it was 4.68 µM; in test [4] it was > 54.6 µM; in test [5], 4.74 µM; in test [6] it was > 100 µM. Moreover, the TGI in test [7] was 6.58 µM; in test [8] it was > 100 µM.

On to `COc1ccc(-c2cc(=O)c3c(OC)c4ccoc4c(/C=C/C=O)c3o2)cc1`, for which the GI50 is 17.2 µM in test [1]; 18.5 µM in test [2]; 27.5 µM in test [3]; 13.6 µM in test [4]; 3.92 µM in test [5]; 3.8 µM in test [6]. Further, the GI50 in test [7] was 3.4 µM; in test [8], 3.13 µM. In addition, the TGI in test [1] was 71.9 µM; in test [2], 72.4 µM; in test [3] it was 80.4 µM; in test [4] it was > 100 µM; in test [5], 25.3 µM; in test [6] it was > 100 µM. Moreover, the TGI in test [7] is 26.5 µM; in test [8], 20.6 µM.

Take `C[n+]1cccc(NC(=O)c2ccc3ccc4ccc(C(=O)Nc5ccc[n+](C)c5)nc4c3n2)c1`: the GI50 in test [1] was 7.14 µM; in test [2], 0.155 µM; in test [3], 4.35 µM; in test [4] it was 1.51 µM; in test [5], 4.3 µM; in test [6], 7.37 µM. Further, the GI50 in test [7] was 2.59 µM; in test [8], 1.15 µM. For the same molecule, the TGI in test [1] was > 28 µM; in test [2], > 100 µM; in test [3] it was > 100 µM; in test [4], > 100 µM; in test [5], > 100 µM; in test [6], > 100 µM. Further, the TGI in test [7] was 25.3 µM; in test [8], 9.9 µM.

As for `Cc1cc(O)ccc1C1(c2ccc(O)cc2C)OC(=O)c2ccccc21`, the GI50 in test [1] is 17.7 µM; in test [2] it was 20.8 µM; in test [3], 16.8 µM; in test [4] it was 21 µM; in test [5] it was 16.4 µM; in test [6] it was 16.4 µM. In addition, the GI50 in test [7] was 16.2 µM; in test [8] it was 15.1 µM. For the same molecule, the TGI in test [1] is 33.3 µM; in test [2], 37 µM; in test [3] it was 32.3 µM; in test [4], 47.5 µM; in test [5], 30.1 µM; in test [6], 30.8 µM. Further, the TGI turned out to be 31.7 µM in test [7] and 29.5 µM in test [8].

Take `CC(=O)Oc1ccc(C2OC(c3ccc4ccccc4c3OC(C)=O)=NN2C(C)=O)c(OC(C)=O)c1` (centres undefined): the GI50 was 1.73 µM in test [1]; 0.412 µM in test [2]; 0.377 µM in test [3]; 0.348 µM in test [4]; 0.354 µM in test [5]; 0.291 µM in test [6]. In addition, the results for the GI50 in test [7] and in test [8] were 0.295 µM and 1.13 µM, respectively. For the same molecule, the TGI was 17.5 µM in test [1]; > 48.5 µM in test [2]; > 32.3 µM in test [3]; 15.1 µM in test [4]; 26.1 µM in test [5]; > 75.9 µM in test [6]. The TGI in test [7] was 14.8 µM; in test [8], > 31.4 µM.

For `NS(=O)(=O)c1ccc(N=Nc2c(O)[nH]c3ccc(C(=O)NCCCn4ccnc4)cc23)cc1`, the GI50 in test [1], in test [2], in test [3], in test [4], in test [5] and in test [6] was > 25 µM throughout. The GI50 in test [7] and in test [8] was > 25 µM in each case. The TGI in test [1], in test [2], in test [3], in test [4], in test [5] and in test [6] was > 25 µM in each case. Also, the TGI in test [7] and in test [8] was > 25 µM each time.

As for `O=C(O)c1ccc(CSc2nc3ccccc3[nH]2)cc1`, the GI50 in test [1], in test [2], in test [3], in test [4], in test [5] and in test [6] was > 100 µM each time. The GI50 in test [7] and in test [8] was > 100 µM throughout. Further, the TGI in test [1], in test [2], in test [3], in test [4], in test [5] and in test [6] was > 100 µM throughout. The TGI in test [7] and in test [8] was > 100 µM each time.
